Reference: patent US8999974B2, “Acyl piperazine derivatives as TTX-S blockers” (Raqualia Pharma Inc., priority 2010, dated 2015)

Target: T1, human NaV1.3 (Homo sapiens, UniProt Q9NY46)
T1 construct: expressed in transfected cells; host or cells: HEK293
Experiment: FRET assay (EFS, FDSS) on HEK293 cells expressing human NaV1.3 channels
Type: cell-based
Conditions: FRET assay, HEK293 cells expressing human NaV1.3; read-out: IC50 against Nav1.3
Method: This screen was used to determine the effects of compounds on human NaV1.3, human Nav1.7, and human Nav1.5 channels, utilising electrical field stimulation (EFS) system in 96-well plate format on FDSS (Hamamatsu Photonics) platform. The change of membrane potential was monitored with FRET dye pair, oxonol (DiSBAC2(3)) and coumarin (CC2-DMPE).
Each HEK293 cells expressing human NaV1.3 channels and HEK293 cells expressing human NaV1.5 channels were grown in T225 flasks, in a 5% CO2 humidified incubator to about 80% confluence. Media composition consisted of Dulbecco's Modified Eagle Medium (high glucose), 10% FCS, 100 units/ml Penicillin, 100 microgram/ml Streptomycin and 500 microgram/ml Geneticine.
Protocol: • Seeded each cell lines (1×10^5 cells/well) into poly-D-lysine coated 96-well plates prior to experimentation. • Incubated at 37° C. in 5% CO2 for 24 hours. • Washed each well with assay buffer (140 mM NaCl, 4.5 mM KCl, 10 mM D-Glucose, 2 mM CaCl2, 1 mM MgCl2, 10 mM HEPES, pH 7.4 adjusted with NaOH) twice. • Added 1st loading solution containing 10 microM CC2-DMPE and 0.06% Pluronic F-127 in assay buffer. • Incubated the plate at room temperature in dark for 1 hour. • Removed 1st loading solution and added 2nd loading solution containing 15 microM DiSBAC2(3), 0.555 mM VABSC-1 and 0.004% Pluronic F-127 in assay buffer. • Placed the plate under the dark at room temperature for 25 minutes. • Added compound solutions into the assay plate. • Set the assay plate in FDSS and placed an EFS device on the plate. • Measured EFS-induced fluorescent response by FDSS.
The data were analyzed and reported as normalized ratios of intensities measured at […]. The process of calculating these ratios was performed as follows:
[formula] This analysis was performed using a computerized specific program designed for FDSS generated data. Fluorescence ratio values were plotted using XLfit to determine an IC50 value for each compound.

T1 sequence (Q9NY46 whole entry): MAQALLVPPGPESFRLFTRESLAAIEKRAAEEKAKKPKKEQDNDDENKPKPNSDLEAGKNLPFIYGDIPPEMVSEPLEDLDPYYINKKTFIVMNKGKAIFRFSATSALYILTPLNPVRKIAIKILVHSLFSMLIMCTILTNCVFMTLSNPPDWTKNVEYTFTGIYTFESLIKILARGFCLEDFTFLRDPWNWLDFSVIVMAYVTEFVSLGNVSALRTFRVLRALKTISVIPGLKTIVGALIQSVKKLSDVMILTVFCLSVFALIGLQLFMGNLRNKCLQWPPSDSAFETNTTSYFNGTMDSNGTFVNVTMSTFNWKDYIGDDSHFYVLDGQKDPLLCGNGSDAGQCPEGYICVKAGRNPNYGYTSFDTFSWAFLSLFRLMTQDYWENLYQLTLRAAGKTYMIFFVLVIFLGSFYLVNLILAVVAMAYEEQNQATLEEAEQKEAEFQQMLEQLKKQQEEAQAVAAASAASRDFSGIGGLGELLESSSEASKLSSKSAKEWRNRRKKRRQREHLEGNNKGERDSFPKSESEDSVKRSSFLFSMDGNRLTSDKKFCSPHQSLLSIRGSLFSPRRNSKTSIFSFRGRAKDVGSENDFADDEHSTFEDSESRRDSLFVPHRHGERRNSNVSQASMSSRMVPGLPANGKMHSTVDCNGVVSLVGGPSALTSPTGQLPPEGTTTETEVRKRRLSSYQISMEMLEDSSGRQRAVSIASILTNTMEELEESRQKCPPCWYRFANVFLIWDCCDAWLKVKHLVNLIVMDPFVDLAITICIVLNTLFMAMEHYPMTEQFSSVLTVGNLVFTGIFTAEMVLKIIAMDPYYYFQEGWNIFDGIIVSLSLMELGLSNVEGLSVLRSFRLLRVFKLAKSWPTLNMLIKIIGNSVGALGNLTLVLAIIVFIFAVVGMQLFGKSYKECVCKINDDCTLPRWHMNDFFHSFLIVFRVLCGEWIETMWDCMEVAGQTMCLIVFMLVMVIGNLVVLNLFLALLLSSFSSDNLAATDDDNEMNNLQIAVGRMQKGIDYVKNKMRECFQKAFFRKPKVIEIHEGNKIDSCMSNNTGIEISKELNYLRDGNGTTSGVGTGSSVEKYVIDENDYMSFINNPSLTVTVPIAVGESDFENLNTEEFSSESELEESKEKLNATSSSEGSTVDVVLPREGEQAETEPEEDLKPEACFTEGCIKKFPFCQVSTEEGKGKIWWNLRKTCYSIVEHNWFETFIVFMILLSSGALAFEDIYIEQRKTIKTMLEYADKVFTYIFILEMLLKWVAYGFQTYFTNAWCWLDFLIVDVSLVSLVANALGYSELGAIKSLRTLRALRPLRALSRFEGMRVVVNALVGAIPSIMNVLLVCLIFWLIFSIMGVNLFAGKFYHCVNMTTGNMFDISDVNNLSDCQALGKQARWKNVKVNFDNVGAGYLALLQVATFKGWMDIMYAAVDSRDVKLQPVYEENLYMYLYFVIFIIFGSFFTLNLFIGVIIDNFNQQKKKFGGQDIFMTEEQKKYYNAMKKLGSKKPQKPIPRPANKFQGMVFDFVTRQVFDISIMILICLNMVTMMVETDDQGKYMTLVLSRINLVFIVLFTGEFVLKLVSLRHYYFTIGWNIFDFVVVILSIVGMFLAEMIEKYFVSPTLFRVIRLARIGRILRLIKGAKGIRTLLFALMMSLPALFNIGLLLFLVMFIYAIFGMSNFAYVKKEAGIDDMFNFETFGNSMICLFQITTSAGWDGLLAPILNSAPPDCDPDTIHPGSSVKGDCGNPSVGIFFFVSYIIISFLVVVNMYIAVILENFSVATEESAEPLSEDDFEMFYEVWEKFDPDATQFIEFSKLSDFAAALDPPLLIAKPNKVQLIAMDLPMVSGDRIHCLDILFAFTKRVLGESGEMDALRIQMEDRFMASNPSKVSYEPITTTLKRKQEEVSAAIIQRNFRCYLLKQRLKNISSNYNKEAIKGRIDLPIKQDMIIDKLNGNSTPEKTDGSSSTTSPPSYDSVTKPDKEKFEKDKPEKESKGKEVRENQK

SMILES	IC50
CC(C)COc1cc(N2CCN(C(=O)Cc3ccc(F)cc3)CC2)ncn1 [Example 119, 2-(4-fluorophenyl)-1-(4-(6-isobutoxypyrimidin-4-yl)piperazin-1-yl)ethanone]	< 3 µM
CC(C)COc1cc(N2CCN(C(=O)CS(=O)(=O)c3ccc(Cl)cc3)CC2)ncn1 [Example 121, 2-((4-chlorophenyl)sulfonyl)-1-(4-(6-isobutoxypyrimidin-4-yl)piperazin-1-yl)ethanone]	< 3 µM
CC(C)COc1cc(N2CCN(C(=O)COc3ccc4cccnc4c3)CC2)ncn1 [Example 127, 1-(4-(6-isobutoxypyrimidin-4-yl)piperazin-1-yl)-2-(quinolin-7-yloxy)ethanone]	< 3 µM
CC(C)COc1cc(N2CCN(C(=O)COc3cccc4ccncc34)CC2)ncn1 [Example 128, 1-(4-(6-isobutoxypyrimidin-4-yl)piperazin-1-yl)-2-(isoquinolin-8-yloxy)ethanone]	< 3 µM
CC(C)COc1cc(N2CCN(C(=O)c3cc(-c4ccccc4)nn3C)CC2)ncn1 [Example 134, (4-(6-isobutoxpyrimidin-4-yl)piperazin-1-yl)(1-methyl-3-phenyl-1H-pyrazol-5-yl)methanone]	< 3 µM
Cc1c(C(=O)N2CCN(c3cc(OCC(C)C)ncn3)CC2)cnn1-c1ccccc1 [Example 135]	< 3 µM
Cc1c(C(=O)N2CCN(c3cc(OCC(C)C)ncn3)CC2)nnn1-c1ccccc1 [Example 136, (4-(6-isobutoxpyrimidin-4-yl)piperazin-1-yl)(5-methyl-1-phenyl-1H-1,2,3-triazol-4-yl)methanone]	< 3 µM
O=C(CCOc1ccc(F)cc1)N1CCN(c2cc(OC3CCC3)ncn2)CC1 [Example 140, 1-(4-(6-cylcobutoxypyrimidin-4-yl)piperazin-1-yl)-3-(4-fluorophenoxy)propan-1-one]	< 3 µM
CC(C)COc1cc(N2CCN(C(=O)COc3cncc(Cl)c3)CC2)ncn1 [Example 144, 2-((5-chloropyridin-3-yl)oxy)-1-(4-(6-isobutoxypyrimidin-4-yl)piperazin-1-yl)ethanone]	< 3 µM
Cc1c(C(=O)N2CCN(c3cc(OCC(F)(F)F)ncn3)CC2)cnn1-c1ccccc1 [Example 148, (5-methyl-1-phenyl-1H-pyrazol-4-yl)(4-(6-(2,2,2-trifluoroethoxy)pyrimidin-4-yl)piperazin-1-yl)methanone]	< 3 µM
CC(C)COc1cc(N2CCN(C(=O)[C@@H](C)Oc3ccc(F)cc3)CC2)ncn1 [Example 152, (R)-2-(4-fluorophenoxy)-1-(4-(6-isobutoxypyrimidin-4-yl)piperazin-1-yl)propan-1-one]	< 3 µM
O=C(COc1cccc(F)c1)N1CCN(c2cc(OCC(F)(F)F)ncn2)CC1 [Example 155, 2-(3-fluorophenoxy)-1-(4-(6-(2,2,2-trifluoroethoxy)pyrimidin-4-yl)piperazin-1-yl)ethanone]	< 3 µM
O=C(CN1CCc2ccccc2C1=O)N1CCN(c2cc(OCC(F)(F)F)ncn2)CC1 [Example 157, 2-(2-oxo-2-(4-(6-(2,2,2-trifluoroethoxy)pyrimidin-4-yl)piperazin-1-yl)ethyl)-3,4-dihydroisoquinolin-1(2H)-one]	< 3 µM
CC(C)Oc1cc(N2CCN(C(=O)c3cc(-c4ccccc4)nn3C)CC2)ncn1 [Example 164, (4-(6-isopropoxypyrimidin-4-yl)piperazin-1-yl)(1-methyl-3-phenyl-1H-pyrazol-5-yl)methanone]	< 3 µM
CC(C)COc1cc(N2CCN(C(=O)c3cnn(Cc4ccccc4)c3)CC2)ncn1 [Example 171, (1-benzyl-1H-pyrazol-4-yl)(4-(6-isobutoxypyrimidin-4-yl)piperazin-1-yl)methanone]	< 3 µM
Cc1nn(-c2ccccc2)nc1C(=O)N1CCN(c2cc(OCC(C)C)ncn2)CC1 [Example 182, (4-(6-isobutoxypyrimidin-4-yl)piperazin-1-yl)(5-methyl-2-phenyl-2H-1,2,3-triazol-4-yl)methanone]	< 3 µM
COc1ccccc1-n1cc(C(=O)N2CCN(c3cc(OCC(C)C)ncn3)CC2)cn1 [Example 183, (4-(6-isobutoxypyrimidin-4-yl)piperazin-1-yl)(1-(2-methoxyphenyl)-1H-pyrazol-4-yl)methanone]	< 3 µM
CC(C)COc1cc(N2CCN(C(=O)c3cnn(-c4ccccc4)c3N)CC2)ncn1 [Example 184, (5-amino-1-phenyl-1H-pyrazol-4-yl)(4-(6-isobutoxypyrimidin-4-yl)piperazin-1-yl)methanone]	< 3 µM
CC(C)COc1cc(N2CCN(C(=O)c3cc(-c4ccccc4)ncn3)CC2)ncn1 [Example 185, (4-(6-isobutoxypyrimidin-4-yl)piperazin-1-yl)(6-phenylpyrimidin-4-yl)methanone]	< 3 µM
CC(C)COc1cc(N2CCN(C(=O)c3cc(-c4cccnc4)nn3C)CC2)ncn1 [Example 189, (4-(6-isobutoxypyrimidin-4-yl)piperazin-1-yl)(1-methyl-3-(pyridin-3-yl)-1H-pyrazol-5-yl)methanone]	< 3 µM
CC(C)COc1cc(N2CCN(C(=O)c3csc(-c4cccnc4)n3)CC2)ncn1 [Example 190, (4-(6-isobutoxypyrimidin-4-yl)piperazin-1-yl)(2-(pyridin-3-yl)thiazol-4-yl)methanone]	< 3 µM
CC(C)COc1cc(N2CCN(C(=O)c3csc(-c4ccccn4)n3)CC2)ncn1 [Example 191, (4-(6-isobutoxypyrimidin-4-yl)piperazin-1-yl)(2-(pyridin-2-yl)thiazol-4-yl)methanone]	< 3 µM
CC(C)Oc1cc(N2CCN(C(=O)c3csc(-c4ccccn4)n3)CC2)ncn1 [Example 193, (4-(6-isopropoxypyrimidin-4-yl)piperazin-1-yl)(2-(pyridin-2-yl)thiazol-4-yl)methanone]	< 3 µM
Cc1c(C(=O)N2CCN(c3cc(OCC(C)C)ncn3)CC2)nnn1-c1ccc(F)cc1 [Example 202, (1-(4-fluorophenyl)-5-methyl-1H-1,2,3-triazol-4-yl)(4-(6-isobutoxypyrimidin-4-yl)piperazin-1-yl)methanone]	< 3 µM
Cc1c(C(=O)N2CCN(c3cc(OC(C)C)ncn3)CC2)nnn1-c1ccc(F)cc1 [Example 203, (1-(4-fluorophenyl)-5-methyl-1H-1,2,3-triazol-4-yl)(4-(6-isopropoxypyrimidin-4-yl)piperazin-1-yl)methanone]	< 3 µM
Cc1c(C(=O)N2CCN(c3cc(OC4CCC4)ncn3)CC2)nnn1-c1ccc(F)cc1 [Example 204, (4-(6-cyclobutoxypyrimidin-4-yl)piperazin-1-yl)(1-(4-fluorophenyl)-5-methyl-1H-1,2,3-triazol-4-yl)methanone]	< 3 µM
Cc1c(C(=O)N2CCN(c3cc(OCC(F)(F)F)ncn3)CC2)nnn1-c1ccc(F)cc1 [Example 205, (1-(4-fluorophenyl)-5-methyl-1H-1,2,3-triazol-4-yl)(4-(6-(2,2,2-trifluoroethoxy)pyrimidin-4-yl)piperazin-1-yl)methanone]	< 3 µM
CC(C)COc1cc(N2CCN(C(=O)c3cn(-c4ccccc4)nn3)CC2)ncn1 [Example 206, (4-(6-isobutoxypyrimidin-4-yl)piperazin-1-yl)(1-phenhyl-1H-1,2,3-triazol-4-yl)methanone]	< 3 µM
CC(C)COc1cc(N2CCN(C(=O)c3nn(C)c4ccc(F)cc34)CC2)ncn1 [Example 209, (5-fluoro-1-methyl-1H-indazol-3-yl)(4-(6-isobutoxypyrimidin-4-yl)piperazin-1-yl)methanone]	< 3 µM
